Experimental data: PubChem BioAssay AID330 (DTP/NCI, 2004)
Values joined by “and” are separate entries in the source; they are usually repeats but may differ in a detail not shown here. Identical values can stand only once. Toxic doses and inconclusive results are not listed. Peptide text beside a SMILES is read from it. * marks the point of attachment. Cbz = O=C(OCc1ccccc1)*

Test system: P388 leukemia ip, CD2F1 mice, survival T/C
Assay: NCI In Vivo Anticancer Drug Screen. Data for tumor model P388 Leukemia (intraperitoneal) in CD2F1 (CDF1) mice
Conditions: endpoint: median survival time, higher = longer survival
In short: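 Mice carrying the transplanted tumor received test compound or vehicle. Survival was recorded in each group, and the value is the treated-group measurement divided by that of the vehicle-treated control group.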

[1] = dose: 50.0 mg/kg/injection, schedule: Q01DX005 (ip), vehicle: Klucel (hydroxypropylcellulose) (HPC)
[2] = dose: 100.0 mg/kg/injection, schedule: Q01DX005 (ip), vehicle: Klucel (hydroxypropylcellulose) (HPC)
[3] = dose: 200.0 mg/kg/injection, schedule: Q01DX005 (ip), vehicle: Klucel (hydroxypropylcellulose) (HPC)
[4] = dose: 100.0 mg/kg/injection, schedule: Q01DX001 (ip), vehicle: Klucel (hydroxypropylcellulose) (HPC)
[5] = dose: 200.0 mg/kg/injection, schedule: Q01DX001 (ip), vehicle: Klucel (hydroxypropylcellulose) (HPC)
[6] = dose: 400.0 mg/kg/injection, schedule: Q01DX001 (ip), vehicle: Klucel (hydroxypropylcellulose) (HPC)
[7] = dose: 50.0 mg/kg/injection, schedule: Q01DX005 (ip), vehicle: saline with Tween-80
[8] = dose: 100.0 mg/kg/injection, schedule: Q01DX005 (ip), vehicle: saline with Tween-80
[9] = dose: 200.0 mg/kg/injection, schedule: Q01DX005 (ip), vehicle: saline with Tween-80
[10] = dose: 50.0 mg/kg/injection, schedule: Q01DX009 (ip), vehicle: saline with Tween-80
[11] = dose: 100.0 mg/kg/injection, schedule: Q01DX009 (ip), vehicle: saline with Tween-80
[12] = dose: 200.0 mg/kg/injection, schedule: Q01DX009 (ip), vehicle: saline with Tween-80
[13] = dose: 60.0 mg/kg/injection, schedule: Q01DX005 (ip), vehicle: saline with Tween-80
[14] = dose: 120.0 mg/kg/injection, schedule: Q01DX005 (ip), vehicle: saline with Tween-80
[15] = dose: 240.0 mg/kg/injection, schedule: Q01DX005 (ip), vehicle: saline with Tween-80
[16] = dose: 100.0 mg/kg/injection, schedule: Q01DX009 (ip), vehicle: Klucel (hydroxypropylcellulose) (HPC)
[17] = dose: 50.0 mg/kg/injection, schedule: Q01DX009 (ip), vehicle: Klucel (hydroxypropylcellulose) (HPC)
[18] = dose: 200.0 mg/kg/injection, schedule: Q01DX009 (ip), vehicle: Klucel (hydroxypropylcellulose) (HPC)

## CCN(CC)CCOC(=O)Cc1ccc2c(=O)cc(-c3ccc(C)cc3)oc2c1
dose: 12.5 mg/kg/injection, schedule: Q01DX005 (ip), vehicle: Klucel (hydroxypropylcellulose) (HPC)
  T/C: 109 % of control
dose: 25.0 mg/kg/injection, schedule: Q01DX005 (ip), vehicle: Klucel (hydroxypropylcellulose) (HPC)
  T/C: 108 % of control
[1]
  T/C: 103 % of control and 114 % of control
[2]
  T/C: 121 % of control

## Brc1ccc(-c2ccc3nnnn3n2)s1
[1]
  T/C: 91 % of control
[2]
  T/C: 95 % of control
[3]
  T/C: 87 % of control

## O=C(O)CC(Nc1ccc([N+](=O)[O-])cc1[N+](=O)[O-])C(=O)O (stereo unspecified)
dose: 50.0 mg/kg/injection, schedule: Q01DX005 (ip), vehicle: saline
  T/C: 100 % of control
dose: 100.0 mg/kg/injection, schedule: Q01DX005 (ip), vehicle: saline
  T/C: 106 % of control
dose: 200.0 mg/kg/injection, schedule: Q01DX005 (ip), vehicle: saline
  T/C: 103 % of control

## C1CSCCSCCCSCCSCCCSCCSC1
[4]
  T/C: 97 % of control
[5]
  T/C: 105 % of control
[6]
  T/C: 97 % of control

## CC[C@]1(O)CN2CCc3c([nH]c4ccccc34)[C@@](C(=O)OC)(c3cc4c(cc3OC)N(C)[C@H]3[C@@](O)(C(=O)OC)[C@H](OC(C)=O)[C@]5(CC)C=CCN6CC[C@]43[C@@H]65)C[C@H](C2=O)[C@H]1O
dose: 4.0 mg/kg/injection, schedule: Q01DX001 (ip), vehicle: water
  T/C: 115 % of control
dose: 8.0 mg/kg/injection, schedule: Q01DX001 (ip), vehicle: water
  T/C: 117 % of control
dose: 16.0 mg/kg/injection, schedule: Q01DX001 (ip), vehicle: water
  T/C: 115 % of control and 124 % of control
dose: 128.0 mg/kg/injection, schedule: Q01DX001 (ip), vehicle: water
  T/C: 150 % of control

## COC(=O)C(CC(C)C)NC(=O)C(CO)NC(=O)OCc1ccccc1 (stereo not drawn) (Cbz-Ser-Leu-OMe; configuration not given here)
[7]
  T/C: 100 % of control
[8]
  T/C: 99 % of control
[9]
  T/C: 100 % of control

## CCOC(=O)c1c(C)c(C(=O)OCC)n(CC)c1C=O
[10]
  T/C: 96 % of control
[11]
  T/C: 98 % of control
[12]
  T/C: 98 % of control

## N#CC(C(=O)C(N)=O)c1ccc(Cl)cc1Cl (stereo unspecified)
[13]
  T/C: 104 % of control
[14]
  T/C: 103 % of control
[15]
  T/C: 100 % of control

## CN1C(=O)N(C)P123OP1(N(C)C(=O)N1C)(N(C)C(=O)N2C)N(C)C(=O)N3C
dose: 60.0 mg/kg/injection, schedule: Q01DX005 (ip), vehicle: saline
  T/C: 103 % of control
dose: 120.0 mg/kg/injection, schedule: Q01DX005 (ip), vehicle: saline
  T/C: 97 % of control
dose: 240.0 mg/kg/injection, schedule: Q01DX005 (ip), vehicle: saline
  T/C: 89 % of control

## O=C(NNS(=O)(=O)CCC(NC(=O)OCc1ccccc1)C(=O)OCc1ccccc1)OCc1ccccc1 (stereo unspecified)
dose: 12.5 mg/kg/injection, schedule: Q01DX009 (ip), vehicle: other
  T/C: 110 % of control
dose: 25.0 mg/kg/injection, schedule: Q01DX009 (ip), vehicle: other
  T/C: 102 % of control
dose: 50.0 mg/kg/injection, schedule: Q01DX009 (ip), vehicle: other
  T/C: 96 % of control
dose: 100.0 mg/kg/injection, schedule: Q01DX009 (ip), vehicle: other
  T/C: 96 % of control

## C[CH2][Sn]1([CH2]C)[O]C(=O)CCCCC(=O)[O]1
dose: 12.5 mg/kg/injection, schedule: Q04DX003 (ip), vehicle: saline
  T/C: 115 % of control

## CCN(CC)CCNc1ccc(N)c2sc3ccccc3c(=O)c12
[10]
  T/C: 103 % of control and 107 % of control and 119 % of control
[11]
  T/C: 115 % of control and 120 % of control and 122 % of control
[12]
  T/C: 96 % of control

## Cc1cc(Cl)nn2cc(CC(=O)O)nc12
[4]
  T/C: 100 % of control
[5]
  T/C: 104 % of control
[6]
  T/C: 98 % of control

## O=C1c2ccccc2C(=O)C1(Br)C(Br)c1ccccc1 (stereo unspecified)
[16]
  T/C: 104 % of control
dose: 100.0 mg/kg/injection, schedule: Q04DX003 (ip), vehicle: Klucel (hydroxypropylcellulose) (HPC)
  T/C: 104 % of control
dose: 200.0 mg/kg/injection, schedule: Q04DX003 (ip), vehicle: Klucel (hydroxypropylcellulose) (HPC)
  T/C: 95 % of control
dose: 400.0 mg/kg/injection, schedule: Q04DX003 (ip), vehicle: Klucel (hydroxypropylcellulose) (HPC)
  T/C: 90 % of control

## CC(C)N=c1sc(-c2ccccc2)c(C#N)c(=O)n1C(C)C
dose: 25.0 mg/kg/injection, schedule: Q01DX009 (ip), vehicle: saline with Tween-80
  T/C: 101 % of control
[10]
  T/C: 103 % of control
[11]
  T/C: 103 % of control

## O=C(NC(Cc1ccc(O)cc1)C(=O)N=Nc1c(O)[nH]c2ccccc12)c1ccccc1 (stereo unspecified)
dose: 30.0 mg/kg/injection, schedule: Q01DX005 (ip), vehicle: saline with Tween-80
  T/C: 90 % of control
[13]
  T/C: 87 % of control and 90 % of control
[14]
  T/C: 90 % of control
[15]
  T/C: 101 % of control

## COc1cccc(C(=O)c2ccc(OC)cc2C(=O)O)c1
[1]
  T/C: 95 % of control
[2]
  T/C: 101 % of control
[3]
  T/C: 97 % of control

## O=C1NC(=O)N(CCO)C(=O)C1c1ccccc1 (stereo unspecified)
[17]
  T/C: 101 % of control
[16]
  T/C: 101 % of control
[18]
  T/C: 94 % of control

## COc1cccc2c1N(COC(C)=O)C(=O)C1C=CC(C)(C)OC21 (stereo unspecified)
dose: 8.0 mg/kg/injection, schedule: Q01DX009 (ip), vehicle: Klucel (hydroxypropylcellulose) (HPC)
  T/C: 97 % of control
dose: 16.0 mg/kg/injection, schedule: Q01DX009 (ip), vehicle: Klucel (hydroxypropylcellulose) (HPC)
  T/C: 95 % of control
dose: 32.0 mg/kg/injection, schedule: Q01DX009 (ip), vehicle: Klucel (hydroxypropylcellulose) (HPC)
  T/C: 97 % of control
dose: 64.0 mg/kg/injection, schedule: Q01DX009 (ip), vehicle: Klucel (hydroxypropylcellulose) (HPC)
  T/C: 92 % of control

## CCOP(=O)(O)SP(=O)(O)OCC.CCOP(=O)(O)SP(=O)(O)OCC.[Co]
dose: 50.0 mg/kg/injection, schedule: Q01DX001 (ip), vehicle: saline
  T/C: 105 % of control
dose: 100.0 mg/kg/injection, schedule: Q01DX001 (ip), vehicle: saline
  T/C: 104 % of control and 111 % of control

## N#CC1C(=O)NC(=O)C(C#N)C1c1c2ccccc2cc2ccccc12 (stereo unspecified)
[17]
  T/C: 100 % of control
[16]
  T/C: 100 % of control
[18]
  T/C: 100 % of control

## CCCCCCCCN(/N=C/c1c2c(O)c3c(O)c(C)c4c(c3c1O)C(=O)C(C)(O/C=C/C(OC)C(C)C(OC(C)=O)C(C)C(O)C(C)C(O)C(C)/C=C/C=C(C)C(=O)N2)O4)C1OC(COC(=O)c2ccccc2)C(OC(=O)c2ccccc2)C1OC(=O)c1ccccc1 (stereo unspecified)
[10]
  T/C: 102 % of control
[11]
  T/C: 102 % of control
[12]
  T/C: 107 % of control

## CC(=O)Sc1nnc2c3ccccc3n(C(C)=O)c2n1
dose: 100.0 mg/kg/injection, schedule: Q04DX003 (ip), vehicle: saline
  T/C: 99 % of control
dose: 200.0 mg/kg/injection, schedule: Q04DX003 (ip), vehicle: saline
  T/C: 97 % of control
dose: 400.0 mg/kg/injection, schedule: Q04DX003 (ip), vehicle: saline
  T/C: 105 % of control

## CC1=C[C@@H]2c3cccc4c3c(cn4C)C[C@H]2N(C)C1
[7]
  T/C: 99 % of control
[8]
  T/C: 100 % of control

## CC(=O)C(=Cc1ccc(O)cc1)C(C)=O
[7]
  T/C: 100 % of control
[8]
  T/C: 103 % of control
[9]
  T/C: 103 % of control

## OC1(c2ccc(F)cc2)CCNCC1
dose: 60.0 mg/kg/injection, schedule: Q01DX005 (ip), vehicle: Klucel (hydroxypropylcellulose) (HPC)
  T/C: 104 % of control
dose: 120.0 mg/kg/injection, schedule: Q01DX005 (ip), vehicle: Klucel (hydroxypropylcellulose) (HPC)
  T/C: 92 % of control

## Cc1ccc(C)c(NC(=O)CCC(=O)CC(=O)c2ccncc2)c1
[13]
  T/C: 107 % of control
[14]
  T/C: 107 % of control
[15]
  T/C: 105 % of control

## CC1=NN(C(=O)c2ccccc2)C(=O)C1N=Nc1ccc(S(N)(=O)=O)cc1 (stereo unspecified)
dose: 50.0 mg/kg/injection, schedule: Q01DX001 (ip), vehicle: Klucel (hydroxypropylcellulose) (HPC)
  T/C: 101 % of control
[4]
  T/C: 94 % of control
[5]
  T/C: 96 % of control
[6]
  T/C: 90 % of control
